Laboratory results taken from ChEMBL document CHEMBL4014293, “Highly oxygenated antiausterity agents from the leaves of Uvaria dac” (2017).
Activity calls are given as the source filed them. No cut-off for these calls is given here.

What was measured:
PANC-1 [1] = experiment: Antiausteritic activity against human PANC1 cells in nutrient deprived medium assessed as induction of morphological changes at 25 to 50 uM after 24 hrs by ethidium bromide/acridine orange staining based fluorescent/phase contrast microscopic method; assay type: functional, cell-based
MIA PaCa-2 = experiment: Antiausteritic activity against human MIAPaCa2 cells in nutrient deprived medium after 24 hrs by WST8 assay; assay type: functional
PANC-1 [2] = experiment: Antiausteritic activity against human PANC1 cells in nutrient deprived medium after 24 hrs by WST8 assay; assay type: functional
CAPAN-1 = experiment: Antiausteritic activity against human Capan1 cells in nutrient deprived medium after 24 hrs by WST8 assay; assay type: functional
PSN1 = experiment: Antiausteritic activity against human PSN1 cells in nutrient deprived medium after 24 hrs by WST8 assay; assay type: functional
KLM1 = experiment: Antiausteritic activity human KLM1 cells in nutrient deprived medium after 24 hrs by WST8 assay; assay type: functional

SMILES	Activity (PANC-1 [1])	Activity (MIA PaCa-2)	PC50 (MIA PaCa-2)	Activity (PANC-1 [2])	PC50 (PANC-1 [2])	Activity (CAPAN-1)	PC50 (CAPAN-1)	Activity (PSN1)	PC50 (PSN1)	Activity (KLM1)
O=C(OCC1=C[C@@H](OC(=O)c2ccccc2)[C@H](O)[C@@H](OC(=O)c2ccccc2)[C@@H]1O)c1ccccc1	Active	Dose-dependent effect	29.1 µM	Dose-dependent effect	20.1 µM	Dose-dependent effect	73 µM	Dose-dependent effect	9.7 µM	Dose-dependent effect
CCCCCCCCCCCCCCCCCC(=O)O[C@@H]1C=C(COC(=O)c2ccccc2)[C@@H](O)[C@H](OC(=O)c2ccccc2)[C@H]1O		Dose-dependent effect		Dose-dependent effect		Dose-dependent effect		Dose-dependent effect		Dose-dependent effect
O=C(OCC1=C[C@@H](OC(=O)c2ccccc2)[C@H](OC(=O)c2ccccc2)[C@@H](O)[C@@H]1O)c1ccccc1		Dose-dependent effect		Dose-dependent effect		Dose-dependent effect		Dose-dependent effect		Dose-dependent effect
CCCCCCCCCCCCCCCCCC(=O)O[C@@H]1C=C(COC(=O)c2ccccc2)[C@@H](O)[C@H](O)[C@H]1OC(=O)c1ccccc1		Dose-dependent effect		Dose-dependent effect		Dose-dependent effect		Dose-dependent effect		Dose-dependent effect
